# US20110251379A1, “COMPOUNDS USEFUL FOR TREATING NEURODEGENERATIVE DISORDERS” (Satori Pharmaceuticals, Inc., priority 2010, published 2011)
# System: amyloid-beta (1-42) peptide
# Assay: ELISA assay of amyloid-beta (1-42) in conditioned media of 2B7 cells
# Format: cell-based
# Settings: 5 h, Aβ-42, 2B7 cells, 5 hours; read-out: IC50 range
# Method in brief: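 2B7 cells were treated with compounds for 5 hours at 37° C in media with 1% DMSO. Conditioned media, diluted 1:2 in blocking buffer, went into a sandwich ELISA with 6E10 capture and an HRP-labelled detection antibody, read by TMB at 450 nm. Values came from an Aβ peptide standard curve.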
row,SMILES,IC50 [µM]
1,CC(=O)O[C@@H]([C@H]1C[C@@H](C)C2C(O1)[C@H](O)[C@@]1(C)[C@@H]3CC[C@H]4C(C)(C)[C@@H](O[C@@H]5OC[C@@H](O)[C@H](O)[C@H]5O)CC[C@@]45C[C@@]35CC[C@]21C)C(C)(C)O (stereo partly drawn) [drawing 891],≤ 1
2,CC(=O)O[C@@H]([C@H]1C[C@@H](C)C2C(O1)C(=O)[C@@]1(C)[C@@H]3CC[C@H]4C(C)(C)[C@@H](O[C@@H]5OC[C@@H](O)[C@H](O)[C@H]5O)CC[C@@]45C[C@@]35CC[C@]21C)C(C)(C)O (stereo partly drawn) [drawing 895],> 1
3,CC(=O)O[C@@H]([C@H]1C[C@@H](C)C2C(O1)[C@H](O)[C@@]1(C)[C@@H]3CC[C@H]4C(C)(C)[C@@H](O)CC[C@@]45C[C@@]35CC[C@]21C)C(C)(C)O (stereo partly drawn) [drawing 897],≤ 1
4,CCC(=O)O[C@@H]([C@H]1C[C@@H](C)C2C(O1)[C@H](O)[C@@]1(C)[C@@H]3CC[C@H]4C(C)(C)[C@@H](O)CC[C@@]45C[C@@]35CC[C@]21C)C(C)(C)O (stereo partly drawn) [drawing 908],> 10
5,CC(=O)O[C@@H]([C@H]1C[C@@H](C)C2C(O1)[C@H](O)[C@@]1(C)[C@@H]3CC[C@H]4C(C)(C)[C@H](O)CC[C@@]45C[C@@]35CC[C@]21C)C(C)(C)O (stereo partly drawn) [drawing 925],≤ 1
6,CC(=O)O[C@@H]([C@H]1C[C@@H](C)C2C(O1)[C@H](O)[C@@]1(C)[C@@H]3CC[C@H]4C(C)(C)[C@@H](OC5CN(CC(N)=O)CCO5)CC[C@@]45C[C@@]35CC[C@]21C)C(C)(C)O (stereo partly drawn) [drawing 942],≤ 1
7,CC(=O)O[C@@H]([C@H]1C[C@@H](C)C2C(O1)[C@H](O)[C@@]1(C)[C@@H]3CC[C@H]4C(C)(C)[C@@H](OC5CN(CC(=O)N(C)C)CCO5)CC[C@@]45C[C@@]35CC[C@]21C)C(C)(C)O (stereo partly drawn) [drawing 947],≤ 1
8,CC(=O)O[C@@H]([C@H]1C[C@@H](C)C2C(O1)[C@H](O)[C@@]1(C)[C@@H]3CC[C@H]4C(C)(C)[C@@H](OC(=O)c5cccnc5)CC[C@@]45C[C@@]35CC[C@]21C)C(C)(C)O (stereo partly drawn) [drawing 951],≤ 1
9,CC(=O)O[C@@H]([C@H]1C[C@@H](C)[C@H]2[C@H](O1)[C@H](O)[C@@]1(C)[C@@H]3CC[C@H]4C(C)(C)C(OC(N)=O)CC[C@@]45C[C@@]35CC[C@]21C)C(C)(C)O (stereo partly drawn) [drawing 964],≤ 1
10,CC(=O)O[C@@H]([C@H]1C[C@@H](C)[C@H]2[C@H](O1)C(=O)[C@@]1(C)[C@@H]3CC[C@H]4C(C)(C)[C@@H](O[C@H]5CN(CC(N)=O)CCO5)CC[C@@]45C[C@@]35CC[C@]21C)C(C)(C)O [drawing 969],≤ 1

# Same assay, conditions: Aβ-42, 10 umol/L; read-out: % Inhibition (range)
row,SMILES,inhibition at 10 µM [%]
1,C[C@@H]1C[C@H]([C@H](O)C(C)(C)O)OC2C1[C@@]1(C)CC[C@@]34C[C@@]35CC[C@H](O)C(C)(C)[C@@H]5CC[C@H]4[C@]1(C)[C@H]2O (stereo partly drawn) [drawing 887],< 25
2,C[C@@H]1C[C@H]([C@H](O)C(C)(C)O)OC2C(=O)[C@@]3(C)[C@@H]4CC[C@H]5C(C)(C)[C@@H](O)CC[C@@]56C[C@@]46CC[C@]3(C)C21 (stereo partly drawn) [drawing 893],< 25

# Same assay, conditions: Aβ-42, 20 umol/L
row,SMILES,% Inhibition (range)
1,"CC1CC(C(O)C(C)(C)O)OC2C1C1(C)CCC34CC35CCC(OC3CN(C6CCOC6)CCO3)C(C)(C)C5CCC4C1(C)C2O (single isomer, unassigned) [drawing 1105]",F (% inhibition of <25%)
2,"CC1CC(C(O)C(C)(C)O)OC2C1C1(C)CCC34CC35CCC(OC3CN(C6CCOC6)CCO3)C(C)(C)C5CCC4C1(C)C2O (single isomer, unassigned) [drawing 1106]",E (% inhibition of 25-75%)
3,CC1CC(CO)OC2C1C1(C)CCC34CC35CCC(OC3OCC(O)C(O)C3O)C(C)(C)C5CCC4C1(C)C2O (stereo not drawn) [drawing 782],E (% inhibition of 25-75%)
4,C[C@@H]1C[C@H]([C@H](O)C(C)(C)O)OC2C1[C@@]1(C)CC[C@@]34C[C@@]35CC[C@H](O)C(C)(C)[C@@H]5CC[C@H]4[C@]1(C)[C@H]2O (stereo partly drawn) [drawing 890],E (% inhibition of 25-75%)

# Same assay, conditions: Aβ-42, 20 umol/L; read-out: % Inhibition (range)
row,SMILES,inhibition at 20 µM [%]
1,C[C@@H]1C[C@H]([C@H](O)C(C)(C)O)OC2C1[C@@]1(C)CC[C@@]34C[C@@]35CC[C@H](O)C(C)(C)[C@@H]5CC[C@H]4[C@]1(C)[C@H]2O (stereo partly drawn) [drawing 889],< 25
2,CC(=O)OCC1C[C@@H](C)C2C(O1)[C@H](O)[C@@]1(C)[C@@H]3CC[C@H]4C(C)(C)[C@@H](O)CC[C@@]45C[C@@]35CC[C@]21C (stereo partly drawn) [drawing 923],< 25

# Same assay, conditions: Aβ-42, 100 umol/L; read-out: % Inhibition (range)
row,SMILES,inhibition at 100 µM [%]
1,C[C@@H]1C[C@H]([C@H](O)C(C)(C)O)OC2C1[C@@]1(C)CC[C@@]34C[C@@]35CC[C@H](O)C(C)(C)[C@@H]5CC[C@H]4[C@]1(C)[C@H]2O (stereo partly drawn) [drawing 888],25 to 75
2,C[C@@H]1C[C@H]([C@H](O)C(C)(C)O)OC2C(=O)[C@@]3(C)[C@@H]4CC[C@H]5C(C)(C)[C@@H](O)CC[C@@]56C[C@@]46CC[C@]3(C)C21 (stereo partly drawn) [drawing 894],25 to 75
3,CCC(=O)O[C@@H]([C@H]1C[C@@H](C)C2C(O1)[C@H](O)[C@@]1(C)[C@@H]3CC[C@H]4C(C)(C)[C@@H](O)CC[C@@]45C[C@@]35CC[C@]21C)C(C)(C)O (stereo partly drawn) [drawing 908],25 to 75

# Same assay, conditions: Aβ-42, 2B7 cells, 5 hours; read-out: IC50 range
row,SMILES,IC50 [µM]
1,CC1CC(CN(C2COC2)S(C)(=O)=O)OC2C1C1(C)CCC34CC35CCC(O)C(C)(C)C5CCC4C1(C)C2O (stereo not drawn),> 10
2,CC(=O)N(CC1CC1)CC1CC(C)C2C(O1)C(O)C1(C)C3CCC4C(C)(C)C(O)CCC45CC35CCC21C (stereo not drawn),> 10
3,CC1CC(CN(CC2CC2)S(C)(=O)=O)OC2C1C1(C)CCC34CC35CCC(O)C(C)(C)C5CCC4C1(C)C2O (stereo not drawn),> 10
4,CC(=O)N(CC1CC(C)C2C(O1)C(O)C1(C)C3CCC4C(C)(C)C(O)CCC45CC35CCC21C)CC(C)(C)O (stereo not drawn),> 10
5,CC1CC(CO)OC2C1C1(C)CCC34CC35CCC(OC3OCC(O)C(O)C3O)C(C)(C)C5CCC4C1(C)C2O (stereo not drawn) [drawing 782],> 10
6,CC1CC(CO)OC2C1C1(C)CCC34CC35CCC(OC3OCC(O)C(O)C3O)C(C)(C)C5CCC4C1(C)C2O (stereo not drawn) [drawing 783],1 to 10
7,CC(=O)OC(C1CC(C)C2C(O1)C(O)C1(C)C3CCC4C(C)(C)C(OC5CN(S(C)(=O)=O)CCO5)CCC45CC35CCC21C)C(C)(C)O (stereo not drawn) [drawing 785],≤ 1
8,CC(=O)OC(C1CC(C)C2C(O1)C(O)C1(C)C3CCC4C(C)(C)C(OC(=O)C5CNC5)CCC45CC35CCC21C)C(C)(C)O (stereo not drawn) [drawing 791],≤ 1
9,CC(=O)OCC1CC(C)C2C(O1)C(O)C1(C)C3CCC4C(C)(C)C(OC5OCC(O)C(O)C5O)CCC45CC35CCC21C (stereo not drawn) [drawing 792],1 to 10
10,CC(=O)N(Cc1ccccc1)CC1CC(C)C2C(O1)C(O)C1(C)C3CCC4C(C)(C)C(O)CCC45CC35CCC21C (stereo not drawn) [drawing 801],1 to 10
11,CC1CC(C(=O)O)OC2C1C1(C)CCC34CC35CCC(O)C(C)(C)C5CCC4C1(C)C2O (stereo not drawn) [drawing 803],> 10
12,CCC(=O)OC(C1CC(C)C2C(O1)C(O)C1(C)C3CCC4C(C)(C)C(OC5CN(C6COC6)CCO5)CCC45CC35CCC21C)C(C)(C)O (stereo not drawn) [drawing 805],≤ 1
13,CC(=O)OCC1CC(C)C2C(O1)C(O)C1(C)C3CCC4C(C)(C)C(OC(=O)c5cccnc5)CCC45CC35CCC21C (stereo not drawn) [drawing 832],1 to 10
14,CC(=O)N(Cc1cc(F)cc(F)c1)CC1CC(C)C2C(O1)C(O)C1(C)C3CCC4C(C)(C)C(O)CCC45CC35CCC21C (stereo not drawn) [drawing 839],≤ 1
15,CC(=O)N(Cc1ccccn1)CC1CC(C)C2C(O1)C(O)C1(C)C3CCC4C(C)(C)C(O)CCC45CC35CCC21C (stereo not drawn) [drawing 841],1 to 10
16,CC(=O)N(CC1CC(C)C2C(O1)C(O)C1(C)C3CCC4C(C)(C)C(O)CCC45CC35CCC21C)C(C)c1ccccc1 (stereo not drawn) [drawing 844],< 10
17,CC(=O)N(CC1CC(C)C2C(O1)C(O)C1(C)C3CCC4C(C)(C)C(O)CCC45CC35CCC21C)C(C)C (stereo not drawn) [drawing 845],1 to 10
18,CC(=O)N(CC1CC(C)C2C(O1)C(O)C1(C)C3CCC4C(C)(C)C(O)CCC45CC35CCC21C)C(C)c1ccccc1 (stereo not drawn) [drawing 851],1 to 10
19,CC1CC(C(OC(=O)C2CC2)C(C)(C)O)OC2C1C1(C)CCC34CC35CCC(O)C(C)(C)C5CCC4C1(C)C2O (stereo not drawn) [drawing 853],≤ 1
20,CC(=O)N(Cc1cc(F)cc(F)c1)CC1CC(C)C2C(O1)C(O)C1(C)C3CCC4C(C)(C)C(OC(=O)C5CNC5)CCC45CC35CCC21C (stereo not drawn) [drawing 856],1 to 10
21,CC1CC(C(OC(=O)C2CCC2)C(C)(C)O)OC2C1C1(C)CCC34CC35CCC(O)C(C)(C)C5CCC4C1(C)C2O (stereo not drawn) [drawing 859],≤ 1
22,CC1CC(C(OC(=O)N(C)C)C(C)(C)O)OC2C1C1(C)CCC34CC35CCC(O)C(C)(C)C5CCC4C1(C)C2O (stereo not drawn) [drawing 862],> 10
23,CC1CC(C(=O)C(C)(C)O)OC2C1C1(C)CCC34CC35CCC(O)C(C)(C)C5CCC4C1(C)C2O (stereo not drawn) [drawing 864],> 10
24,CC1CC(C(OC(=O)C2CCC2)C(C)(C)O)OC2C1C1(C)CCC34CC35CCC(OC3CN(C6COC6)CCO3)C(C)(C)C5CCC4C1(C)C2O (stereo not drawn) [drawing 865],> 10
25,CC(C)C(=O)OC(C1CC(C)C2C(O1)C(O)C1(C)C3CCC4C(C)(C)C(OC5CN(C6COC6)CCO5)CCC45CC35CCC21C)C(C)(C)O (stereo not drawn) [drawing 866],> 10
26,C[C@@H]1C[C@H]([C@H](O)C(C)(C)O)OC2C1[C@@]1(C)CC[C@@]34C[C@@]35CC[C@H](O)C(C)(C)[C@@H]5CC[C@H]4[C@]1(C)[C@H]2O (stereo partly drawn) [drawing 887],1 to 10
27,C[C@@H]1C[C@H]([C@H](O)C(C)(C)O)OC2C1[C@@]1(C)CC[C@@]34C[C@@]35CC[C@H](O)C(C)(C)[C@@H]5CC[C@H]4[C@]1(C)[C@H]2O (stereo partly drawn) [drawing 889],> 10
28,CO[C@@H]1[C@@H](OC)[C@H](O[C@H]2CC[C@]34C[C@]35CC[C@]3(C)C6C(O[C@@H]([C@H](OC(C)=O)C(C)(C)O)C[C@H]6C)[C@H](O)[C@@]3(C)[C@@H]5CC[C@H]4C2(C)C)OC[C@H]1OC (stereo partly drawn) [drawing 937],< 10
29,CO[C@@H]1[C@@H](OC)[C@H](O[C@H]2CC[C@]34C[C@]35CC[C@]3(C)C6C(O[C@@H]([C@H](OC(C)=O)C(C)(C)O)C[C@H]6C)[C@H](O)[C@@]3(C)[C@@H]5CC[C@H]4C2(C)C)OC[C@H]1OC (stereo partly drawn) [drawing 938],≤ 1
30,CC(=O)O[C@@H]([C@H]1C[C@@H](C)C2C(O1)[C@H](O)[C@@]1(C)[C@@H]3CC[C@H]4C(C)(C)[C@H](O)CC[C@@]45C[C@@]35CC[C@]21C)C(C)(C)O (stereo partly drawn) [drawing 944],1 to 10
